From patent US6680282B2 (priority 1997, dated 2004)

Legend:
Sphaerotheca fuliginea = assay: Test for control effect against powdery mildew of Cucurbitaceae (spray on cucumber seedlings); format: in vivo; settings: 200 ppm spray, cucumber first foliage leaf, 10 days after inoculation
From the text: Test for Control Effect Against Powdery Mildew of Cucurbitaceae
A spray liquid comprising a test compound whose concentration was adjusted to be 200 ppm by dilution with water was sprayed to a cucumber grown in a vinyl pot of 3 cm in diameter when its first foliage leaf was developed. The air-dried cucumber seedling was inoculated with a conidium suspension of Sphaerotheca fuliginea. Thereafter, the cucumber seedling was transferred in an air-conditioned greenhouse. 10 Days after the inoculation, the disease severity was observed. The protective value was calculated by comparing the disease severity in a treated area with that in an untreated area. Then, control effect was ranked according to the following criterion.
B; protective value 50 to 79%

Pyricularia oryzae [1] = assay: whole plant or invertebrate; format: in vivo; settings: for rank (control effect, protective value from lesion number): 100 ppm spray, rice seedling (Jikkoku) 4-leaf stage, lesion number on fourth leaf 6 days after inoculation; for pest or weed control at 100 ppm: Pyricularia oryzae, foliar, 144 h, read-out: rank (control effect, protective value from lesion number)
Cochlioborus miyabeanus = format: cell-based; settings: 100 ppm in potato dextrose agar, 28 or 22° C., 48 hours
Pyricularia oryzae [2] = format: cell-based; settings: 100 ppm in potato dextrose agar, 28 or 22° C., 48 hours
Verticillium aibo-atrum = format: cell-based; settings: 100 ppm in potato dextrose agar, 28 or 22° C., 48 hours
Description: (§1) Test for Antifungal Activity
(§2) A test compound dissolved in acetone was mixed in a potato dextrose agar medium (manufactured by Nissui Seiyaku K. K.) so that the final concentration of the test compound was 100 ppm and then poured in a Petri dish. To this Perti dish after the agar was completely solidified, a cylindrical section prepared by punching a mycelial colony of each of plant pathogenic fungi cultured in another Petri dish by means of a cork borer was inoculated and cultured at 28 or 22° C. 48 Hours after the inoculation, the diameter of the mycelial colony was determined. Control percentages were calculated by comparing the diameter of the mycelial colony in a treated area with that in an untreated area. And, antifungal effect was ranked according to the following criterion.
(§3) A; control percentage ≧80%
(§4) B; control percentage 50 to 79%
(§5) C; control percentage <50%

[3] = test system: Colletotrichum atramentarium; format: cell-based; settings: 100 ppm in potato dextrose agar, 28 or 22° C., 48 hours
Description: as §1, §2, §3, §4, §5

Botrytis cinerea = format: cell-based; settings: 100 ppm in potato dextrose agar, 28 or 22° C., 48 hours
Description: as §1, §2, §3, §4, §5

[4] = test system: Fusarium oxysporum f. sp. lycopersici; format: cell-based; settings: 100 ppm in potato dextrose agar, 28 or 22° C., 48 hours
Description: as §1, §2, §3, §4, §5

Sclerotinia minor = format: cell-based; settings: 100 ppm in potato dextrose agar, 28 or 22° C., 48 hours
Description: as §1, §2, §3, §4, §5

Gibberella fujikuroi = format: cell-based; settings: 100 ppm in potato dextrose agar, 28 or 22° C., 48 hours
Description: as §1, §2, §3, §4, §5

[5] = test system: Alternaria alternata Japanese pear pathotype; format: cell-based; settings: 100 ppm in potato dextrose agar, 28 or 22° C., 48 hours
Description: as §1, §2, §3, §4, §5

Rhizoctonia solani = format: cell-based; settings: 100 ppm in potato dextrose agar, 28 or 22° C., 48 hours
Description: as §1, §2, §3, §4, §5

Glomerella cingalata = format: cell-based; settings: 100 ppm in potato dextrose agar, 28 or 22° C., 48 hours
Description: as §1, §2, §3, §4, §5

| SMILES | rank (control effect, protective value from disease severity) (Sphaerotheca fuliginea) | rank (control effect, protective value from lesion number) (Pyricularia oryzae [1]) | further results |
| --- | --- | --- | --- |
| CCC(C)c1ccc2nc(C)c(C)c(OC(=O)N(C)C)c2c1 (stereo not drawn) [compound 71] | A (protective value ≧80%) | – | – |
| CC(=O)Oc1c(C)c(C)nc2c(C)cc(Br)cc12 [compound 195] | A (protective value ≧80%) | A (protective value ≧80%) | – |
| CCC(C)c1ccc2nc(C)c(C)c(OC(=O)CC(C)C)c2c1 (stereo not drawn) [compound 176] | A (protective value ≧80%) | – | – |
| CCC(C)c1ccc2nc(C)c(C)c(OC(=O)N(CC)CC)c2c1 (stereo not drawn) [compound 72] | A (protective value ≧80%) | B (protective value 50 to 79%) | – |
| CCOC(=O)Oc1c(C)c(C)nc2ccc(C(C)CC)cc12 (stereo not drawn) [compound 66] | A (protective value ≧80%) | A (protective value ≧80%) | – |
| CCc1cc(CC)c2nc(C)c(C)c(OC(C)=O)c2c1 [Compound No. 268] | B (protective value 50 to 79%) | A (protective value ≧80%) | – |
| CCc1cc(C(C)CC)cc2c(OC(C)=O)c(C)c(C)nc12 (racemic) [Compound No. 348] | A (protective value ≧80%) | A (protective value ≧80%) | – |
| CC(=O)Oc1c(C)c(C)nc2ccc(Oc3ccccc3)cc12 [Compound No. 136] | A (protective value ≧80%) | A (protective value ≧80%) | – |
| CCc1ccc2nc(C)c(C)c(OC(C)=O)c2c1 [Compound No. 10] | – | A (protective value ≧80%) | rank (antifungal effect, control percentage of mycelial colony diameter) (Cochlioborus miyabeanus): B (control percentage 50 to 79%); rank (antifungal effect, control percentage of mycelial colony diameter) (Pyricularia oryzae [2]): A (control percentage ≧80%); rank (antifungal effect, control percentage of mycelial colony diameter) (Verticillium aibo-atrum): C (control percentage <50%); rank (antifungal effect, control percentage of mycelial colony diameter) [3]: B (control percentage 50 to 79%); rank (antifungal effect, control percentage of mycelial colony diameter) (Botrytis cinerea): C (control percentage <50%); rank (antifungal effect, control percentage of mycelial colony diameter) [4]: C (control percentage <50%); rank (antifungal effect, control percentage of mycelial colony diameter) (Sclerotinia minor): C (control percentage <50%); rank (antifungal effect, control percentage of mycelial colony diameter) (Gibberella fujikuroi): C (control percentage <50%); rank (antifungal effect, control percentage of mycelial colony diameter) [5]: C (control percentage <50%); rank (antifungal effect, control percentage of mycelial colony diameter) (Rhizoctonia solani): C (control percentage <50%); rank (antifungal effect, control percentage of mycelial colony diameter) (Glomerella cingalata): B (control percentage 50 to 79%) |
| CC(=O)Oc1c(C)c(C)nc2ccc(Br)cc12 [compound 185] | A (protective value ≧80%) | B (protective value 50 to 79%) | – |
| CCC(C)c1cc(Cl)c2nc(C)c(C)c(OC(C)=O)c2c1 (stereo not drawn) [Compound No. 214, 4-acetoxy-6-s-butyl-8-chloro-2,3-dimethylquinoline] | A (protective value ≧80%) | – | pest or weed control at 100 ppm (Pyricularia oryzae [1]): > 80% |
| CC(=O)Oc1c(C)c(C)nc2c(Cl)cc(C(C)(C)C)cc12 [Compound No. 218] | A (protective value ≧80%) | A (protective value ≧80%) | – |
| CC(=O)Oc1c(C)c(C)nc2cc(C)c(Br)cc12 [compound 196] | A (protective value ≧80%) | – | – |
| CC(=O)Oc1c(C)c(C)nc2ccc(CC(C)C)cc12 [compound 93] | A (protective value ≧80%) | A (protective value ≧80%) | – |
| CCC(C)c1cc(CO)c2nc(C)c(C)c(OC(C)=O)c2c1 (stereo not drawn) [Compound No. 340, 4-acetoxy-6-s-butyl-8-hydroxymethyl-2,3-dimethylquinoline] | A (protective value ≧80%) | – | pest or weed control at 100 ppm (Pyricularia oryzae [1]): > 80% |
| CC(=O)Oc1c(C)c(C)nc2ccc(Br)c(C)c12 [compound 197] | A (protective value ≧80%) | A (protective value ≧80%) | – |
| CC(=O)Oc1c(C)c(C)nc2ccc(C3CCCCC3)cc12 [Compound No. 112] | A (protective value ≧80%) | A (protective value ≧80%) | – |

| SMILES | rank (control effect, protective value from disease severity) (Sphaerotheca fuliginea) | rank (control effect, protective value from lesion number) (Pyricularia oryzae [1]) | further results |
| --- | --- | --- | --- |
| CCC(C)c1ccc2nc(C)c(C)c(OC(=O)Oc3ccccc3)c2c1 (stereo not drawn) [compound 68] | A (protective value ≧80%) | A (protective value ≧80%) | – |
| CC(=O)Oc1c(C)c(C)nc2ccc(OC(C)C)cc12 [compound 24] | A (protective value ≧80%) | B (protective value 50 to 79%) | – |
| CCC(=O)Oc1c(C)c(C)nc2ccc(C(C)CC)cc12 (stereo not drawn) [compound 56] | A (protective value ≧80%) | A (protective value ≧80%) | – |
| C=CCC(=O)Oc1c(C)c(C)nc2ccc(C(C)CC)cc12 (stereo not drawn) [compound 175] | A (protective value ≧80%) | – | – |
| CCC(C)c1cc(C=O)c2nc(C)c(C)c(OC(C)=O)c2c1 (stereo not drawn) [Compound No. 356, 4-acetoxy-6-s-butyl-8-formyl-2,3-dimethylquinoline] | A (protective value ≧80%) | – | pest or weed control at 100 ppm (Pyricularia oryzae [1]): > 80% |
| CCC(C)c1ccc2nc3c(c(OC(C)=O)c2c1)CCC3 (stereo not drawn) [Compound No. 153] | A (protective value ≧80%) | B (protective value 50 to 79%) | – |
| CCC(C)c1ccc2nc(C)c(C)c(OC(=O)c3ccccc3)c2c1 (stereo not drawn) [compound 61] | B (protective value 50 to 79%) | A (protective value ≧80%) | – |
| CCCCc1ccc2nc(C)c(CCC)c(OC(C)=O)c2c1 [compound 45] | B (protective value 50 to 79%) | A (protective value ≧80%) | – |
| CCCCc1cc(Cl)c2nc(C)c(C)c(OC(C)=O)c2c1 [Compound No. 216] | B (protective value 50 to 79%) | A (protective value ≧80%) | – |
| CCCCCCCCOC(=O)Oc1c(C)c(C)nc2ccc(C(C)CC)cc12 (stereo not drawn) [compound 67] | A (protective value ≧80%) | A (protective value ≧80%) | – |
| CCC(C)c1cc(CCl)c2nc(C)c(C)c(OC(C)=O)c2c1 (stereo not drawn) [Compound No. 344, 4-acetoxy-6-s-butyl-8-chloromethyl-2,3-dimethylquinoline] | A (protective value ≧80%) | – | pest or weed control at 100 ppm (Pyricularia oryzae [1]): > 80% |
| CCC(C)c1ccc2nc(C)c(C)c(OC(C)=O)c2c1 (stereo not drawn) [compound 55] | A (protective value ≧80%) | A (protective value ≧80%) | – |
| CCC(C)c1ccc2nc(C)c(C)c(OC(=O)OC)c2c1 (stereo not drawn) [compound 65] | A (protective value ≧80%) | A (protective value ≧80%) | – |
| CCC(C)c1ccc2nc(C)c(C)c(O)c2c1 (stereo not drawn) [compound 54] | – | A (protective value ≧80%) | – |
| CCCc1ccc2nc(C)c(C)c(O)c2c1 [Compound No. 13] | – | A (protective value ≧80%) | – |
| CCC(C)c1ccc2nc(C)c(C)c(OC(=O)Oc3ccc(OC)cc3)c2c1 (stereo not drawn) [compound 69] | – | A (protective value ≧80%) | – |
